Molecular target: T1, human GPR40 (Homo sapiens, UniProt O14842)
T1 construct: expressed in transfected cells
Test: Evaluation of human GPR40 agonist activity with increase in intracellular Ca2+ concentration as an index (FLIPR Tetra)
Type: cell-based
Conditions: test compound 1 μM; CHO(dhfr-) cells stably expressing human GPR40; 100% = activity of 1 μM WO2009/048527 Example 99.2, 0% = DMSO
Protocol: Evaluation of human GPR40 agonist activity with increase in intracellular Ca^2+ concentration as an index
CHO(dhfr-) cells that stably expressed human GPR40 were suspended in MEMα (Nikken Bio Medical Laboratory) containing 10% dialysis serum (GEMINI BIO-PRODUCTS), 10 mM HEPES (Invitrogen), 100 U/mL penicillin, 100 μg/mL streptomycin (Invitrogen), and plated on a 384 well black/clear cell culture plate at 10,000 cells/well. After culture overnight in a CO2 incubator at 37° C., the culture supernatant was removed, and a loading buffer [dye attached to Calcium 5 Assay Kit (Molecular Devices) was dissolved in an assay buffer (20 mM HEPES, 0.2% fatty acid-free BSA (Sigma-Aldrich), 2.5 mM probenecid (DOJINDO)-containing HBSS (Invitrogen)) added with 0.025% Cremophor EL (DOJINDO)] was added at 37.5 μL/well. After incubation in a CO2 incubator at 37° C. for 1 hr, the cells were stood at room temperature for 15 min, an assay buffer containing the test compound at a final concentration of 1 μM was added at 12.5 μL/well in FLIPR Tetra (Molecular Devices), and the fluorescence amount was successively measured. Human GPR40 agonist activity calculated using an increase in the intracellular Ca^2+ concentration as an index, wherein the activity of 1 μM of the compound described in WO 2009/048527 (WO2009/048527 Example 99.2) was 100%, and the activity when DMSO was added instead of the test compound was 0%.

T1 sequence (O14842 whole entry): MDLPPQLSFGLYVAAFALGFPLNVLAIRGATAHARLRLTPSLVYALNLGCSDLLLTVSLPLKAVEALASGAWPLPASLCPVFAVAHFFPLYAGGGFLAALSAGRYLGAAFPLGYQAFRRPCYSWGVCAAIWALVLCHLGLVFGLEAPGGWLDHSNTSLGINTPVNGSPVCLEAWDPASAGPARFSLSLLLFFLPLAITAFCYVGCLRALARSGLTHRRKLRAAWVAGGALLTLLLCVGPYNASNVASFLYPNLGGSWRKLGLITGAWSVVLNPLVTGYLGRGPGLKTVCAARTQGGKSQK

| SMILES | activation at 1 µM [%] | Human GPR40 agonist activity (increase in intracellular Ca2+ concentration) [%] |
| --- | --- | --- |
| COc1ccc(F)c(-c2ccc(OCc3cccc(OCC(=O)O)c3)nc2CC(C)(C)C)c1 [Example 1, (3-(((6-(2,2-dimethylpropyl)-5-(2-fluoro-5-methoxyphenyl)pyridin-2-yl)oxy)methyl)phenoxy)acetic acid] | 98 |  |
| COc1ccc(F)c(-c2ccc(OCc3cccc(OCC(=O)O)c3)cc2CC(C)(C)C)c1 [Example 2, (3-(((2-(2,2-dimethylpropyl)-2′-fluoro-5′-methoxybiphenyl-4-yl)oxy)methyl)phenoxy)acetic acid] | 108 |  |
| COc1ccc(F)c(-c2ccc(OCc3cccc(C(CC(=O)O)C4CC4)c3)cc2CC(C)(C)C)c1 (stereo not shown) [Example 3, 3-cyclopropyl-3-(3-(((2-(2,2-dimethylpropyl)-2′-fluoro-5′-methoxybiphenyl-4-yl)oxy)methyl)phenyl)propanoic acid] | 103 |  |
| COc1ccc(F)c(-c2ccc(OCc3cccc(C(CC(=O)O)C4CC4)c3)nc2CC(C)(C)C)c1 (stereo not shown) [Example 4, 3-cyclopropyl-3-(3-(((6-(2,2-dimethylpropyl)-5-(2-fluoro-5-methoxyphenyl)pyridin-2-yl)oxy)methyl)phenyl)propanoic acid] | 110 |  |
| COc1ccc(F)c(-c2ccc(OCc3cccc(C(CC(=O)O)C4CC4)c3)nc2CC(C)(C)C)c1 (stereo not shown) [Example 6, sodium 3-cyclopropyl-3-(3-(((6-(2,2-dimethylpropyl)-5-(2-fluoro-5-methoxyphenyl)pyridin-2-yl)oxy)methyl)phenyl)propanoate] |  | 98 |
| COc1ccc(F)c(-c2ccc(OCc3cccc(CCC(=O)O)c3)cc2CC(C)(C)C)c1 [Example 7, 3-(3-(((2-(2,2-dimethylpropyl)-2′-fluoro-5′-methoxybiphenyl-4-yl)oxy)methyl)phenyl)propanoic acid] | 108 |  |
| COc1ccc(F)c(-c2ccc(NCc3cccc(C(CC(=O)O)C4CC4)c3)cc2CC(C)(C)C)c1 (stereo not shown) [Example 8, 3-cyclopropyl-3-(3-(((2-(2,2-dimethylpropyl)-2′-fluoro-5′-methoxybiphenyl-4-yl)amino)methyl)phenyl)propanoic acid] | 98 |  |
| COc1ccc(F)c(-c2ccc(N(C)Cc3cccc(C(CC(=O)O)C4CC4)c3)cc2CC(C)(C)C)c1 (stereo not shown) [Example 9, 3-cyclopropyl-3-(3-(((2-(2,2-dimethylpropyl)-2′-fluoro-5′-methoxybiphenyl-4-yl)(methyl)amino)methyl)phenyl)propanoic acid] | 103 |  |
| COc1ccc(F)c(-c2ccc(N(Cc3cccc(C(CC(=O)O)C4CC4)c3)CC(F)(F)F)cc2CC(C)(C)C)c1 (stereo not shown) [Example 11, 3-cyclopropyl-3-(3-(((2-(2,2-dimethylpropyl)-2′-fluoro-5′-methoxybiphenyl-4-yl)(2,2,2-trifluoroethyl)amino)methyl)phenyl)propanoic acid] | 106 |  |
| COc1ccc(F)c(-c2ccc(SCc3cccc(C(CC(=O)O)C4CC4)c3)cc2CC(C)(C)C)c1 (stereo not shown) [Example 12, 3-cyclopropyl-3-(3-(((2-(2,2-dimethylpropyl)-2′-fluoro-5′-methoxybiphenyl-4-yl)sulfanyl)methyl)phenyl)propanoic acid] | 113 |  |
| COc1ccc(F)c(-c2ccc(OCc3cccc(C(CC(=O)O)C4CC4)c3)cc2-c2ccc(C(F)(F)F)cc2)c1 (stereo not shown) [Example 17, 3-cyclopropyl-3-(3-(((2-fluoro-5-methoxy-4″-(trifluoromethyl)-1,1′:2′,1″-terphenyl-4′-yl)oxy)methyl)phenyl)propanoic acid] | 98 |  |
| COc1ccc(F)c(-c2ccc(OCc3cccc(C(CC(=O)O)C4CC4)c3)cc2-c2cnc(C)s2)c1 (stereo not shown) [Example 19, 3-cyclopropyl-3-(3-(((2′-fluoro-5′-methoxy-2-(2-methyl-1,3-thiazol-5-yl)biphenyl-4-yl)oxy)methyl)phenyl)propanoic acid] | 120 |  |
| COc1ccc(F)c(-c2ccc(OCc3cccc(C(CC(=O)O)C4CC4)c3)c(CCCC(C)(C)C)c2)c1 (stereo not shown) [Example 21, 3-cyclopropyl-3-(3-(((3-(4,4-dimethylpentyl)-2′-fluoro-5′-methoxybiphenyl-4-yl)oxy)methyl)phenyl)propanoic acid] | 103 |  |
| COc1ccc(F)c(-c2ncc(OCc3cccc(C(CC(=O)O)C4CC4)c3)cc2CC(C)(C)C)c1 (stereo not shown) [Example 22, 3-cyclopropyl-3-(3-(((5-(2,2-dimethylpropyl)-6-(2-fluoro-5-methoxyphenyl)pyridin-3-yl)oxy)methyl)phenyl)propanoic acid] | 99 |  |
| COc1ccc(F)c(-c2ccc(OCc3cc(C(CC(=O)O)C4CC4)ccn3)cc2CC(C)(C)C)c1 (stereo not shown) [Example 24, 3-cyclopropyl-3-(2-(((2-(2,2-dimethylpropyl)-2′-fluoro-5′-methoxybiphenyl-4-yl)oxy)methyl)pyridin-4-yl)propanoic acid] | 106 |  |
| COc1ccc(F)c(-c2ccc(OCc3cc(C(CC(=O)O)C4CC4)ccn3)nc2CC(C)(C)C)c1 (stereo not shown) [Example 25, 3-cyclopropyl-3-(2-(((6-(2,2-dimethylpropyl)-5-(2-fluoro-5-methoxyphenyl)pyridin-2-yl)oxy)methyl)pyridin-4-yl)propanoic acid] | 108 |  |
| COc1ccc(F)c(-c2ccc(OCc3cccc(C(CC(=O)O)C4CC4)c3)cc2CC(C)(C)C#N)c1 (stereo not shown) [Example 26, 3-(3-(((2-(2-cyano-2-methylpropyl)-2′-fluoro-5′-methoxybiphenyl-4-yl)oxy)methyl)phenyl)-3-cyclopropylpropanoic acid] | 105 |  |
| COc1ccc(F)c(-c2ccc(OCc3cc(C(CC(=O)O)C4CC4)ccn3)cc2CC(C)(C)C#N)c1 (stereo not shown) [Example 27, 3-(2-(((2-(2-cyano-2-methylpropyl)-2′-fluoro-5′-methoxybiphenyl-4-yl)oxy)methyl)pyridin-4-yl)-3-cyclopropylpropanoic acid] | 119 |  |
| COc1ccc(F)c(-c2ccc(OCc3cccc(C(CC(=O)O)C4CC4)c3)cc2-c2ccc(C#N)s2)c1 (stereo not shown) [Example 28, 3-(3-(((2-(5-cyano-2-thienyl)-2′-fluoro-5′-methoxybiphenyl-4-yl)oxy)methyl)phenyl)-3-cyclopropylpropanoic acid] | 95 |  |
| COc1ccc(F)c(-c2ccc(OCc3cc(C(CC(=O)O)C4CC4)ncn3)nc2CC(C)(C)C)c1 (stereo not shown) [Example 30, 3-cyclopropyl-3-(6-(((6-(2,2-dimethylpropyl)-5-(2-fluoro-5-methoxyphenyl)pyridin-2-yl)oxy)methyl)pyrimidin-4-yl)propanoic acid] | 103 |  |
| COc1ccc(F)c(-c2ccc(OCc3cc(C(CC(=O)O)C4CC4)ncn3)cc2CC(C)(C)C)c1 (stereo not shown) [Example 31, 3-cyclopropyl-3-(6-(((2-(2,2-dimethylpropyl)-2′-fluoro-5′-methoxybiphenyl-4-yl)oxy)methyl)pyrimidin-4-yl)propanoic acid] | 108 |  |
| COc1ccc(F)c(-c2ccc(C(F)Cc3cccc(CCC(=O)O)c3)nc2CC(C)(C)C)c1 (stereo not shown) [Example 36, 3-(3-(2-(6-(2,2-dimethylpropyl)-5-(2-fluoro-5-methoxyphenyl)pyridin-2-yl)-2-fluoroethyl)phenyl)propanoic acid] | 102 |  |
| COc1ccc(F)c(-c2ccc(OCc3cccc(C(CC(=O)O)C4CC4)c3)cc2OCC(C)(C)C)c1 (stereo not shown) [Example 38, 3-cyclopropyl-3-(3-(((2-(2,2-dimethylpropoxy)-2′-fluoro-5′-methoxybiphenyl-4-yl)oxy)methyl)phenyl)propanoic acid] | 111 |  |
| COc1ccc(F)c(-c2ccc(OCc3cccc(C(CC(=O)O)C4CCCC4)c3)cc2CC(C)(C)C)c1 (stereo not shown) [Example 39, 3-cyclopentyl-3-(3-(((2-(2,2-dimethylpropyl)-2′-fluoro-5′-methoxybiphenyl-4-yl)oxy)methyl)phenyl)propanoic acid] | 105 |  |
| COc1ccc(F)c(-c2ccc(OCc3cccc(C(CC(=O)O)C4CCCCC4)c3)cc2CC(C)(C)C)c1 (stereo not shown) [Example 40, 3-cyclohexyl-3-(3-(((2-(2,2-dimethylpropyl)-2′-fluoro-5′-methoxybiphenyl-4-yl)oxy)methyl)phenyl)propanoic acid] | 114 |  |
| COc1ccc(F)c(-c2ccc(OCc3cccc(C(CC(=O)O)C4CC4)c3)cc2CC2(C#N)CCCC2)c1 (stereo not shown) [Example 41, 3-(3-(((2-((1-cyanocyclopentyl)methyl)-2′-fluoro-5′-methoxybiphenyl-4-yl)oxy)methyl)phenyl)-3-cyclopropylpropanoic acid] | 101 |  |
| COc1ccc(F)c(-c2ccc(OCc3cccc(C(CC(=O)O)C4CCC4)c3)cc2CC(C)(C)C)c1 (stereo not shown) [Example 42, 3-cyclobutyl-3-(3-(((2-(2,2-dimethylpropyl)-2′-fluoro-5′-methoxybiphenyl-4-yl)oxy)methyl)phenyl)propanoic acid] | 104 |  |
| C=CCCC(CC(=O)O)c1cccc(COc2ccc(-c3cc(OC)ccc3F)c(CC(C)(C)C)c2)c1 (stereo not shown) [Example 43, 3-(3-(((2-(2,2-dimethylpropyl)-2′-fluoro-5′-methoxybiphenyl-4-yl)oxy)methyl)phenyl)hept-6-enoic acid] | 107 |  |
